This note sets out measurements from PubChem BioAssay (NCI).

Molecules are shown by their SMILES.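 These data come from cells grown in 96-well plates and exposed to compound for 48 hours at five concentrations. TGI marks complete inhibition of growth.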

Common to all, as to test: inhibition of tumour cell growth, NCI panel, 48 h
The test system of test [1] is OVCAR-5 ovarian.
The subject of test [2] is IGROV1 ovarian.
In test [3] the test system is T-47D breast.
Test [4] concerns DU-145 prostate.
Test [5] has as its system HCT-116 colon.
For test [6], the system named is EKVX NSCLC.
The subject of test [7] is UO-31 renal.
For test [8], the system named is SN12C renal.
For test [9], the system named is NCI-H460 lung.
Test [10] concerns NCI-H522 lung.
Test [11] concerns SW-620 colon.
Test [12] deals with SNB-19 CNS.
Test [13] concerns HCC-2998 colon.
Test [14] deals with RXF 393 renal.
The test system of test [15] is RPMI-8226 leukemia.
Test [16] concerns OVCAR-8 ovarian.
Test [17] relates to HS 578T breast.
In test [18] the test system is MCF7 breast.
Test [19] has as its system OVCAR-4 ovarian.
Test [20] deals with SK-MEL-5 melanoma.

For `N#Cc1c(-c2ccccc2)c(N=Nc2ccc(F)cc2)c(=O)n2c1[nH]c1ccccc12`, the TGI in [1] was 50.5 µM; in [2], 35.7 µM; in test [3], 40.8 µM; in test [4] it was > 100 µM; in test [5], 14.2 µM; in test [6], 41.3 µM. In addition, the TGI was 20.6 µM in [7]; 10.2 µM in test [8]; 19.9 µM in [9]; 14.7 µM in test [10]; > 100 µM in test [11]; 33.5 µM in test [12]. Further, the TGI in test [13] was > 100 µM; in [14] it was 44.6 µM; in [15], 12.9 µM; in test [16], 24 µM; in [17] it was 31.4 µM; in test [18], > 100 µM. Further, the TGI in [19] came to 31.5 µM; in test [20] it was 4.94 µM.
Regarding `CC1(C)C=C(/C=N/Nc2ccc([N+](=O)[O-])cc2)C(C#N)=C(O)C1(C#N)C#N`, the TGI in [1], in test [2], in [3], in test [4], in [5] and in test [6] was > 100 µM each time. Also, the TGI in test [7], in [8], in test [9], in test [10], in test [11] and in test [12] was > 100 µM throughout. In addition, the TGI in test [13], in [14], in test [15], in test [16], in test [17] and in test [18] was > 100 µM in each case. Also, the TGI in test [19] and in test [20] was > 100 µM in each case.
Regarding `NNC(=O)c1ccccc1Nc1ccccc1C(=O)NN`, the TGI in test [1], in test [2], in test [3], in test [4], in test [5] and in test [6] was > 100 µM in each case. The TGI in [7], in test [8], in [9], in test [10], in test [11] and in test [12] was > 100 µM in each case. Also, the TGI in test [13], in test [14], in [15], in test [16], in test [17] and in [18] was > 100 µM in each case. Further, the TGI in [19] and in test [20] was > 100 µM throughout.
As to `COc1c2c(cc3c1C(O)N1CC[C@]34[C@H]3O[C@H]3[C@H](OC)C[C@@H]14)OCO2` (stereo not given in full), the TGI in [1], in test [2], in test [3], in [4], in test [5] and in [6] was > 100 µM each time. For the same compound, the TGI in [7] is > 100 µM; in test [8] it was > 100 µM; in test [9], > 100 µM; in [10], 96.7 µM; in test [11] it was > 100 µM; in test [12], > 100 µM. Further, the TGI in test [13], in [14], in [15], in test [16], in test [17] and in test [18] was > 100 µM each time. For the same compound, the TGI in [19] and in test [20] was > 100 µM in each case.
For `O=S(=O)(N=S(c1ccc(Cl)cc1)c1ccc(Cl)cc1)c1ccccc1`, the TGI in test [1], in [2], in test [3], in [4], in test [5] and in test [6] was > 100 µM in each case. In addition, the TGI in test [7], in [8], in [9], in test [10], in [11] and in test [12] was > 100 µM in each case. Also, the TGI in test [13], in test [14], in test [15], in test [16], in test [17] and in test [18] was > 100 µM in each case. For the same compound, the TGI in test [19] and in test [20] was > 100 µM throughout.
Take `NS(=O)(=O)c1ccc(NNc2c3ccccc3nc3ccccc23)cc1`: the TGI in test [1] was found to be 17.5 µM; in test [2] it was 19.1 µM; in test [3] it was 20.4 µM; in [4], 23.6 µM; in test [5], 15.5 µM; in [6], 21.1 µM. The TGI in [7] was found to be 18.1 µM; in test [8] it was 23.1 µM; in test [9], 21.3 µM; in test [10], 16.4 µM; in [11], 16.6 µM; in [12], 25.7 µM. Also, the TGI in test [13] worked out at 17.6 µM; in [14], 23 µM; in [15], 21.6 µM; in test [16], 16.6 µM; in test [17] it was 23.8 µM; in [18], 15.8 µM. The TGI in [19] and in [20] was 17.2 µM each time.
Regarding `CCOC(=O)c1sc2nc(SC)nc3c2c1N=CN3c1ccccc1Cl`, the TGI in test [1], in [2], in test [3], in [4], in [5] and in test [6] was > 100 µM in each case. Moreover, the TGI in test [7], in test [8], in test [9], in [10], in test [11] and in test [12] was > 100 µM in each case. Moreover, the TGI in [13] was > 100 µM; in test [14], 68.6 µM; in test [15] it was > 100 µM; in test [16] it was > 100 µM; in test [17], 52.3 µM; in test [18], > 100 µM. In addition, the results for the TGI in [19] and in test [20] were 42.4 µM and > 100 µM, respectively.
Turning to `Nc1ccccc1N/C(=C\C(=O)C(Cl)(Cl)Cl)c1ccccc1`, the TGI in [1] was 41.5 µM; in test [2], 71 µM; in test [3], 91.6 µM; in test [4], > 100 µM; in test [5] it was 38.2 µM; in test [6], 63.1 µM. In addition, the TGI in test [7] was 39 µM; in test [8] it was 45.6 µM; in test [9] it was 69.4 µM; in [10], 35 µM; in test [11], > 100 µM; in [12] it was > 100 µM. The TGI was 34.9 µM in [13]; 53.4 µM in [14]; 86 µM in [15]; > 100 µM in [16]; > 100 µM in test [17]; 83.4 µM in test [18]. In addition, the TGI in [19] is > 100 µM; in test [20], 29 µM.
Take `O=[N+]([O-])c1ccc2c(c1)c(N=NC(=S)NC1CCCCC1)c(O)n2CN1CCOCC1`: the TGI worked out at 23.8 µM in test [1]; 15.4 µM in test [2]; 17.7 µM in [3]; 26.8 µM in test [4]; 16.2 µM in test [5]; 14.1 µM in test [6]. Further, the TGI in [7] was 18.4 µM; in [8] it was 19.7 µM; in test [9], 13.5 µM; in [10], 30.3 µM; in [11], > 100 µM; in test [12], 22.2 µM. In addition, the TGI in test [13] was determined as 17.6 µM; in test [14], 29 µM; in test [15], 52.6 µM; in test [16] it was 17.4 µM; in test [17], 45.8 µM; in test [18] it was 17.4 µM. Also, the values for the TGI in [19] and in test [20] were 17.9 µM and 11.3 µM, respectively.
For the compound `CC(=O)CCNc1ccc(-c2cc(-c3ccc(N(C)C)cc3)nc3ccc4ccccc4c23)cc1`, the TGI in test [1], in test [2], in test [3], in test [4], in [5] and in test [6] was > 100 µM in each case. Besides, the TGI in [7], in [8], in [9], in [10], in [11] and in [12] was > 100 µM throughout. In addition, the TGI in test [13], in test [14], in test [15], in [16], in [17] and in test [18] was > 100 µM throughout. Also, the TGI in [19] and in test [20] was > 100 µM each time.
Consider `COc1ccc(N=c2ssc(C(=S)Nc3ccc(OC)cc3)c2S)cc1`, for which the TGI in [1], in test [2], in [3], in [4], in test [5] and in [6] was > 100 µM in each case. In addition, the TGI in test [7], in test [8], in test [9], in [10], in test [11] and in test [12] was > 100 µM throughout. In addition, the TGI in [13] is 84.6 µM; in test [14] it was > 100 µM; in [15] it was > 100 µM; in test [16] it was > 100 µM; in test [17] it was > 100 µM; in [18], > 100 µM. In addition, the TGI in [19] and in [20] was > 100 µM throughout.
